A melting point compilation (Tetko et al.; mined from patent text by program, amines drawn as free bases though some values may be those of a salt)

| SMILES | melting point |
| --- | --- |
| Cc1cc(CC(C)NCCC(c2ccccc2)c2ccccc2)ccc1O (configuration not stated) | 115 to 118 °C |
| CCC1Sc2cc(-c3cccc([N+](=O)[O-])c3)ccc2NC1=O (configuration not stated) | 180 °C |
| Clc1ccc(Nc2ncnc(-c3ccnc(N4CCCCC4)c3)n2)cc1 | 205 to 206 °C |
| O=c1c2cccnc2c(-c2cccc(Cl)c2)cn1Cc1cccs1 | 142 to 145 °C |
| O=S(=O)(c1ccccc1)c1cncc(OC2SCC(O)C(O)C2O)c1 (configuration not stated) | 86 °C |
| O=C1Nc2ccc([N+](=O)[O-])cc2/C1=C(/Nc1ccc(CN2CCCC2)cc1)c1ccccc1 | 45 to 50 °C |
| CC(C)(C)OC(=O)NC12CC3CC(CC(O)(C3)C1)C2 | 131 to 132 °C |
| COc1ccc(C(=O)CC(=O)C(F)(F)F)cc1OC | 87 to 89 °C |
| COc1nc2cc(Cl)c(Cl)cc2nc1OC | 144 to 146 °C |
| COc1cc(NC(=O)OC(C)(C)C)c(NC(=O)CC(=O)c2cccc(C#N)c2)cc1C#Cc1ccccc1 | 169 °C |
| CC(SC1COC(c2ccc(C(=O)Nc3ccc(C#N)cc3)cc2)OC1)C(O)(Cn1cncn1)c1ccc(F)cc1F (configuration not stated) | 176 °C |
| Cc1ccc(S(=O)(=O)OCC2COc3ccc4c(c3O2)CCO4)cc1 (configuration not stated) | 95 to 96 °C |
| Cn1nc(C(=O)NCc2ccc(Cl)cc2)c(=O)c2cc(C#CCCO)ccc21 | 227 to 229 °C |
| NCc1cccc(OCc2nc(-c3ccc(Cl)cc3)cs2)c1 | 117 to 118 °C |
| Cc1cc(CCCCCCCOc2ccc(C3=NCCO3)cc2)on1 | 89 to 90 °C |
| CN(C)C(=O)CCCCCCCCCCCCO | 69 to 71 °C |
| CCOC(=O)N=P(c1ccccc1)(c1ccccc1)c1ccccc1CN1CCCC1 | 120 to 122 °C |
| NC(C=Cc1ccccc1[N+](=O)[O-])=NO | 173 °C |
| CS(=O)(=O)Nc1ccccc1OC1CCCCC1 | 113 to 115 °C |
| OC(CCCCCCCCCCOCc1ccccc1)c1ccc(OCc2ccccc2)c(OCc2ccccc2)c1 (configuration not stated) | 50 to 52 °C |
| COC(=O)C=C1C(=O)NC(=O)N1C | 100 °C |
| COC(=O)c1cccc(OCc2ncc3ccccc3n2)c1 | 78 to 80 °C |
| COC1=NC(c2cccc([N+](=O)[O-])c2)C(C(=O)OC(C)C)=C(C)N1 (configuration not stated) | 130 to 132 °C |
| C#Cc1ccc(Br)c(C(F)(F)F)c1 | < 50 °C |
| CCN1C(=O)Cc2cc3c(cc21)CCO3 | 106 to 107 °C |
| CCOc1ccc(C2SC(=N)NC2=O)c(OCC)c1 (configuration not stated) | 179 to 181 °C |

| SMILES | melting point |
| --- | --- |
| CCc1c(Oc2cc(C)cc(C)c2)n(COCc2ccccc2)c(=O)[nH]c1=O | 146 to 150 °C |
| CCCCCCCCCCCCN=C=O | 100 to 103 °C |
| CCOC(=O)c1ccc2cccc(N)c2c1 | 97 to 98 °C |
| COc1ccc(/C=C(\C)C(=O)O)cc1 | 178 to 182 °C |
| CCOc1c(C(N)=O)cnc2c(NC(=O)c3c(Cl)cccc3Cl)cccc12 | 242 to 245 °C |
| O=S(=O)(c1ccc(Cl)cc1)N1CCCC1c1ccc(F)c(Cl)c1 (racemic) | 119 °C |
| NC(=O)c1cccc([N+](=O)[O-])c1N | 238 to 239 °C |
| COC(=O)C1(CCCN2CCN(c3ccccc3)CC2)Oc2ccccc2OCC1O (configuration not stated) | 113 to 115 °C |
| CSc1cn(C)c2cc(-c3ccccc3Cl)sc2c1=O | 175 to 177 °C |
| O=[N+]([O-])c1ccc2ccccc2c1NCC12CCCN1CCC2 | 88 to 89 °C |
| CCOC(=O)c1cccc(O)c1C | 58 to 60 °C |
| CCC(NC(=O)OC)c1ccc(Cl)c2nc3n(c12)CCCN3c1ccc(Cl)cc1Cl (configuration not stated) | 201 to 203 °C |
| ICCOc1ccc(C2=C(c3ccccc3)CCCc3ccccc32)cc1 | 154 to 156 °C |
| CCCC(=O)c1cc(-c2ccc(C)cc2)no1 | 86 to 87 °C |
| CCc1cc(C(=O)OC)c(Nc2ccc(OC)cc2[N+](=O)[O-])s1 | 125 to 127 °C |
| NC(=S)NN=C(CCCOC(=O)Nc1ccccc1)c1ccccc1 | 140 to 142 °C |
| O=C(N[C@@H]1CONC1=O)OCc1ccccc1 | 135 to 136 °C |
| N#Cc1nn(-c2c(Cl)cc(C(F)(F)F)cc2Cl)c(N)c1-c1cccc(N)c1 | 187 °C |
| NC1N=C(c2ccccc2)C=CS1 (configuration not stated) | 137 °C |
| O=C(O)CCc1cn(Cc2ccc(Cl)cc2Cl)c2ccccc12 | 134 to 136 °C |
| CNS(=O)(=O)OCC(COc1ccccc1OC)OS(N)(=O)=O (configuration not stated) | 110 to 113 °C |
| CCc1nc2c(Cl)ncnc2n1C(C1CC1)C1CC1 | 99 to 100 °C |
| C#C[C@@H](C)N(O)C(N)=O | 120 to 123 °C |
| CCOC(=O)N1Cc2sc3ncn(CCO)c(=O)c3c2C1 | 243 to 245 °C |
| COc1ccc2c(c1)C(=O)c1ccc(-c3nnn[nH]3)cc1S2(=O)=O | 253 °C |
| O=C(C[C@@H](O)C(F)(F)F)N[C@H]1CC[C@H](CCN2CCC(c3cccc4c3CCO4)CC2)CC1 | 189 °C |
